Experimental findings from patent publication US5183906A, “2- and 5-alkyl and phenyl substituted 4-(1-hydroxy, 1-acyloxy or 1-carbamoyloxy)-5-hydroxy-2 (5H)-furanones as anti-inflammatory agents” (Allergan, Inc., priority 1991, dated 1993) are described below.

Molecules are shown by their SMILES. Where two headings read alike, the source gives them in different places.

For one assay, the system named is Calcium^2+ Channel. In words: Calcium^2+ Channel Mobilization Inhibition Assay. Type of assay: cell-based. The settings on record: cell type not stated. How it is done: Polymorphonuclear leukocytes (PMNa), gastric glands, GH3 cells, A431 cells, spleen cells, human keratinocytes corneal cells, etc. were loaded with the Ca^2+ sensitive fluorescent dye, Fura-2. The appropriate cell type was chosen and the potency and efficacy of the anti-inflammatory furanones on calcium mobilization, calcium channel inhibition was quantitated. The methods used for A431 cells listed below are representative of those used for other cells.
A431 cells were detached using a 5-10 min trypsin-EDTA treatment whereas GH3 cells were treated 2 to 5 min with a 1% pancreatin solution. Cells were immediately washed twice in a 20 mM HEPES buffer (pH 7.4) containing 120 mM NaCl, 6 mM KCl, 1 mM MgSO4, 1 mg/ml glucose and 1 mg/ml pyruvate and 1.4 mM calcium (medium A). Approximately 5×10^6 cells were suspended in medium A and incubated with 4uM fura-2-AM for 15 min at 37° C.
After washing the fura-2 loaded cells, the uptake of dye was checked using fluorescence microscopy and found to be evenly distributed in the cytosol of all cells. Fluorescence was continuously recorded with a Perkin-Elmer LS-5 spectrofluorometer. The excitation wavelength was set at 340 nm and emission wavelength set at 500 nm. The cell suspension was continually stirred, maintained at 37° C. and equilibrated for approximately 5 min before addition of various agents. [Ca^2+ i was calculated using the following formula: [formula]
All fluorescence values were measured relative to a EGTA-quenched signal determined as follows: F was the relative fluorescence measurement of the sample. Fmax was determined by lysing the cells with digitonin (100 ug/ml) in DMSO. After Fmax was determined the pH was adjusted to 8, with NaOH and Ca^2+ chelated with 3 mM EGTA to totally quench the fura-2 signal and obtain Fmin.
When quin-2- was used, cells were incubated with 10 uM quin-2- at 37° C. for 1 hour, washed and then used.

The target in assay [1] is bee venom phospholipase A2 (Apis mellifera, UniProt P00630). In words: biochemical. To be noted: pH 7.4.
[2] abbreviates: KCl induced, read-out: IC50, Calcium^2+ Channel Mobilization Inhibition Assay, KCl induced.
Setting [3] is: TRH induced, read-out: IC50, Calcium^2+ Channel Mobilization Inhibition Assay, TRH induced.

Sequence of bee venom phospholipase A2 (P00630 34-167 limits assumed): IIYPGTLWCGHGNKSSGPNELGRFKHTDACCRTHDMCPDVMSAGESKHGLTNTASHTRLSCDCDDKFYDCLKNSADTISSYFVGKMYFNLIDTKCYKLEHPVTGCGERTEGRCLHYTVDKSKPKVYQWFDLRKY

As to `CCCCCCCCCCCCC(OC(C)=O)C1=CC(=O)OC1(C)O` (stereo not shown) [Compound 1, 4-(1-Acetoxytridecyl)-5-hydroxy-5-methyl-2-furanone], the IC50 with Calcium^2+ Channel (setting [2]) was found to be 7000 nM; in the assay with Calcium^2+ Channel (setting [3]), 2500 nM. On to `CCCCCCCCCCCCC(OC(C)=O)C1=C(C)C(=O)OC1O` (stereo not shown) [Compound 2, 4-(1-Acetoxytridecyl)-3-methyl-5-hydroxy-2(5H)-furanone], for which the IC50 in assay [1] is more than 1000 nM. In the case of `CCCCCCCCCCCCC(OC(=O)Nc1ccccc1)C1=CC(=O)OC1(C)O` (stereo not shown) [Compound 4, 5-Methyl-5-hydroxy-4-(1-phenylcarbamoyloxy)tridecyl-2-furanone], the results for the IC50 in the assay with Calcium^2+ Channel (setting [2]) and in the assay with Calcium^2+ Channel (setting [3]) were 800 nM and 500 nM, respectively. The like results for `CC1=C(CC/C(C)=C/CCC2=CCC(C3=CC(=O)OC3O)OC2O)C(C)(C)CCC1` (stereo not shown) [manoalide, reference compound] were, in that order, 800 nM and 600 nM.

By IC50 is commonly meant the concentration needed to halve the response being measured.
